Test systems include MALME-3M melanoma; HCC-2998 colon; A498 renal; HOP-62 NSCLC; MCF7 breast; SN12C renal; SF-268 CNS; SR leukemia.
Test in all cases: NCI-60 cell line screen, 48 h

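Five compound concentrations were applied to cells in 96-well plates for 48 hours; endpoints were derived by simple linear interpolation of the resulting dose-response curve. GI50 is the concentration that inhibits growth by half. TGI denotes the concentration required for complete inhibition of growth.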

Regarding `O=C1COCCN1c1ccc(NCc2cn(Cc3ccc(F)cc3)c3ccccc23)cc1`, the GI50 is 3.47 µM with MALME-3M melanoma; 11.1 µM in the assay on HCC-2998 colon; 0.0203 µM with A498 renal; 0.783 µM in the assay with HOP-62 NSCLC; 0.114 µM with MCF7 breast; 4.08 µM in the assay with SN12C renal. The GI50 with SF-268 CNS was 9.7 µM; in the assay on SR leukemia it was 3.84 µM. Further, the TGI with MALME-3M melanoma is 15.4 µM; in the assay on HCC-2998 colon, 51.7 µM; with A498 renal, 0.0821 µM; with HOP-62 NSCLC, greater than 31.7 µM; in the assay with MCF7 breast, 13 µM; in the assay with SN12C renal, greater than 83.7 µM. The TGI in the assay with SF-268 CNS is 50.4 µM; in the assay with SR leukemia, greater than 100 µM.

As to `COc1cccc(-c2nn(C)c3sc(C(=O)NCCN4CCN(c5ccccc5F)CC4)cc23)c1`, the GI50 in the assay on MALME-3M melanoma is 9.49 µM; in the assay on HCC-2998 colon it was 7.06 µM; in the assay with A498 renal it was 1.29 µM; in the assay on HOP-62 NSCLC, 25.8 µM; with MCF7 breast it was 6.54 µM; in the assay with SN12C renal, 79.5 µM. Moreover, the GI50 with SF-268 CNS is 46.9 µM; in the assay on SR leukemia it was 5.43 µM. Besides, the TGI was 53.5 µM in the assay with MALME-3M melanoma; greater than 100 µM with HCC-2998 colon; 27.3 µM in the assay with A498 renal; greater than 100 µM with HOP-62 NSCLC; greater than 100 µM with MCF7 breast; greater than 100 µM in the assay on SN12C renal. Besides, the TGI in the assay with SF-268 CNS and in the assay on SR leukemia was greater than 100 µM throughout.

In the case of `Nc1c(S(=O)(=O)O)cc2c(c1Cl)C(=O)c1ccccc1C2=O`, the GI50 in the assay on MALME-3M melanoma, with HCC-2998 colon, in the assay on A498 renal, in the assay with HOP-62 NSCLC, with MCF7 breast and in the assay on SN12C renal was greater than 100 µM throughout. In addition, the GI50 with SF-268 CNS and in the assay with SR leukemia was greater than 100 µM each time. Besides, the TGI with MALME-3M melanoma, in the assay with HCC-2998 colon, in the assay with A498 renal, in the assay on HOP-62 NSCLC, in the assay on MCF7 breast and in the assay with SN12C renal was greater than 100 µM each time. Further, the TGI with SF-268 CNS and in the assay with SR leukemia was greater than 100 µM each time.

Consider `C=CCOc1ccc2c(c1)CC[C@@H]1[C@@H]2CC[C@]2(C)C(=O)/C(=N/O)C[C@@H]12`, for which the GI50 in the assay on MALME-3M melanoma was 18 µM; with HCC-2998 colon it was 1.09 µM; with A498 renal it was 1.97 µM; in the assay on HOP-62 NSCLC, 6.08 µM; in the assay with MCF7 breast, 2.72 µM; in the assay on SN12C renal it was 4.01 µM. For the same molecule, the results for the GI50 in the assay on SF-268 CNS and in the assay on SR leukemia were 3.71 µM and 2.3 µM, respectively. Besides, the TGI was 44.4 µM in the assay on MALME-3M melanoma; 3.06 µM in the assay on HCC-2998 colon; 21.3 µM with A498 renal; greater than 49.3 µM in the assay with HOP-62 NSCLC; 13.2 µM with MCF7 breast; greater than 44.2 µM with SN12C renal. In addition, the TGI is greater than 41.9 µM in the assay on SF-268 CNS and 7.84 µM in the assay with SR leukemia.

Regarding `COc1cc(-c2cc(C(=O)N3CCN(C(=O)c4ccccc4NCc4cccs4)CC3)nc3cc(-c4ccccc4)nn23)cc(OC)c1OC`, the GI50 was greater than 100 µM with MALME-3M melanoma; 14.3 µM in the assay with HCC-2998 colon; 8.44 µM in the assay on A498 renal; 11 µM in the assay with HOP-62 NSCLC; 2.56 µM with MCF7 breast; 29.1 µM with SN12C renal. The GI50 in the assay with SF-268 CNS is 5.93 µM; in the assay on SR leukemia it was 3.31 µM. Also, the TGI was greater than 100 µM in the assay on MALME-3M melanoma; greater than 100 µM in the assay on HCC-2998 colon; greater than 100 µM in the assay on A498 renal; 86.7 µM in the assay on HOP-62 NSCLC; greater than 100 µM in the assay with MCF7 breast; greater than 100 µM in the assay with SN12C renal. In addition, the TGI in the assay with SF-268 CNS and in the assay on SR leukemia was greater than 100 µM in each case.

For the molecule `COc1ccc2nc3c(cc2c1)C(=O)CC(C(F)(F)F)C3` (stereo unspecified), the GI50 is 2.57 µM in the assay on MALME-3M melanoma; 4.14 µM with HCC-2998 colon; 0.278 µM with A498 renal; 3.36 µM in the assay with HOP-62 NSCLC; 3.33 µM in the assay with MCF7 breast; 0.805 µM in the assay on SN12C renal. In addition, the GI50 in the assay with SF-268 CNS is 34.6 µM; in the assay on SR leukemia, 0.262 µM. Further, the TGI was greater than 100 µM in the assay with MALME-3M melanoma; 99.1 µM in the assay on HCC-2998 colon; 1.55 µM with A498 renal; greater than 100 µM in the assay with HOP-62 NSCLC; greater than 100 µM in the assay on MCF7 breast; greater than 100 µM with SN12C renal. For the same molecule, the TGI in the assay with SF-268 CNS and in the assay with SR leukemia was greater than 100 µM throughout.

In the case of `COc1ccc(S(=O)(=O)Nc2c(/C=C\c3cc(OC)c(OC)c(OC)c3)ccc(OC)c2O)cc1OC`, the GI50 in the assay on MALME-3M melanoma is greater than 100 µM; in the assay on HCC-2998 colon, 0.306 µM; in the assay with A498 renal it was 0.0413 µM; in the assay on HOP-62 NSCLC, 0.61 µM; in the assay with MCF7 breast it was 0.0405 µM; in the assay on SN12C renal, 0.484 µM. In addition, the GI50 in the assay on SF-268 CNS is 1.29 µM; in the assay with SR leukemia, 0.0661 µM. The TGI is greater than 100 µM in the assay with MALME-3M melanoma; 5.57 µM in the assay with HCC-2998 colon; 0.291 µM in the assay with A498 renal; greater than 100 µM with HOP-62 NSCLC; greater than 100 µM in the assay with MCF7 breast; greater than 100 µM in the assay with SN12C renal. In addition, the figures for the TGI in the assay on SF-268 CNS and with SR leukemia were greater than 100 µM and greater than 75.9 µM, respectively.

Consider `CC(=O)SC(C[N+](=O)[O-])c1ccccc1` (stereo unspecified), for which the TGI in the assay with MALME-3M melanoma was found to be 35.9 µM; in the assay on HCC-2998 colon, 10.6 µM; in the assay on A498 renal it was 20.7 µM; in the assay on HOP-62 NSCLC, 33 µM; with MCF7 breast it was 4.35 µM; in the assay on SN12C renal, 27.3 µM. The TGI in the assay with SF-268 CNS is 22.6 µM; in the assay on SR leukemia it was 6.85 µM.

On to `Nc1nc(-c2ccccc2Cl)cc(-c2ccc(Cl)cc2Cl)n1`, for which the GI50 in the assay on MALME-3M melanoma was 17.7 µM; in the assay on HCC-2998 colon it was 7.19 µM; with A498 renal it was 3.34 µM; in the assay with HOP-62 NSCLC, 8.21 µM; with MCF7 breast, 3.45 µM; in the assay with SN12C renal, 13.1 µM. Besides, the GI50 in the assay on SF-268 CNS was 5.01 µM; in the assay with SR leukemia, 4.1 µM. Further, the TGI was greater than 100 µM in the assay with MALME-3M melanoma; 44 µM in the assay with HCC-2998 colon; 22.8 µM in the assay on A498 renal; greater than 100 µM in the assay on HOP-62 NSCLC; greater than 100 µM with MCF7 breast; greater than 100 µM in the assay on SN12C renal. In addition, the TGI is 81.6 µM in the assay with SF-268 CNS and greater than 100 µM in the assay on SR leukemia.

These data come from PubChem BioAssay (NCI).
